Measured values: patent publication US8263606B2 (Xenon Pharmaceuticals Inc., priority 2008, dated 2012)

Tests used:
CYP3A4 = CYP3A4 (Homo sapiens, UniProt P08684); experiment: Cytochrome P450 (CYP450) Inhibition Assay, CYP3A4 (Vivid fluorescence, BOMCC substrate); conditions: human, P450 Baculosomes (recombinant CYP3A4), probe BOMCC (Vivid substrate)
sodium channel = experiment: Guanidine influx assay (14C-guanidine radiotracer flux, in vitro); assay type: cell-based, human or rat; conditions: guanidine influx assay using a known cell line that expresses a sodium channel
How it was run: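 Aconitine holds channels open while 14C-guanidine enters human or rat sodium-channel-expressing cells in choline-substituted low-sodium saline, with test agent present at ambient temperature. Retained tracer is scintillation-counted and IC50 fitted by a four-parameter logistic model.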

Chain of CYP3A4 (P08684 whole entry): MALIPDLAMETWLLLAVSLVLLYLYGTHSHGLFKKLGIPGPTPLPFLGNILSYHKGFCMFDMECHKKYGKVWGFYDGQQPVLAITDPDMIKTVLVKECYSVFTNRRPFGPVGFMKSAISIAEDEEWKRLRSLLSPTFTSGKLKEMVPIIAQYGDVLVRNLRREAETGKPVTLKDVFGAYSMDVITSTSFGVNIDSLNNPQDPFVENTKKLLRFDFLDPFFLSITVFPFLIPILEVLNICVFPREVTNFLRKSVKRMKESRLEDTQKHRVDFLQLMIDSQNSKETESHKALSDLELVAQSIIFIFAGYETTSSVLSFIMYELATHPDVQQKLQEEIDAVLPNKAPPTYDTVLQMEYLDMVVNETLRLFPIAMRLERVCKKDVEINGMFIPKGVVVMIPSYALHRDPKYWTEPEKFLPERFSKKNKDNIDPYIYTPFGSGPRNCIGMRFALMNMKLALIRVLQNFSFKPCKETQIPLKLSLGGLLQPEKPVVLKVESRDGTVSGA

SMILES	inhibition at 10 µM (CYP3A4) [%]	IC50 (sodium channel; activity level class) [nM]	melting point	IC50 (sodium channel) [nM]
O=C1N(Cc2ccc3c(c2)OCCO3)c2ccccc2C12COc1cc3c(cc12)CCO3 (stereo not drawn) [Example 4.26, 1′-(2,3-dihydro-1,4-benzodioxin-6-ylmethyl)-5,6-dihydrospiro[benzo[1,2-b:5,4-b′]difuran-3,3′-indol]-2′(1′H)-one]	< 50	1 to 100	173 to 175 °C	–
O=C1N(Cc2ccccc2C(F)(F)F)c2ccccc2[C@@]12COc1cc3c(cc12)OCCO3 [Example 4.114, (8R)-1′-[2-(trifluoromethyl)benzyl]-2,3-dihydrospiro[furo[2,3-g][1,4]benzodioxine-8,3′-indol]-2′(1′H)-one]	< 50	100 to 1000	137 to 138 °C	–
O=C1N(Cc2noc(C(F)(F)F)n2)c2ccccc2C12COc1cc3c(cc12)OCCO3 (stereo not drawn) [Example 11.90, 1′-{[5-(trifluoromethyl)-1,2,4-oxadiazol-3-yl]methyl}-2,3-dihydrospiro[furo[2,3-g][1,4]benzodioxine-8,3′-indol]-2′(1′H)-one]	> 50	–	159 to 160 °C	1 to 100
O=C1N(Cc2ccc(C(F)(F)F)o2)c2cccc(Cl)c2C12COc1cc3c(cc12)CCO3 (stereo not drawn) [Example 4.33, 4′-chloro-1′-{[5-(trifluoromethyl)furan-2-yl]methyl}-5,6-dihydrospiro[benzo[1,2-b:5,4-b′]difuran-3,3′-indol]-2′(1′H)-one]	> 50	1 to 100	166 to 169 °C	–
CC(C)c1cc(CN2C(=O)C3(COc4cc5c(cc43)OCO5)c3ccccc32)on1 (stereo not drawn) [Example 1.6, 1′-[(3-isopropylisoxazol-5-yl)methyl]spiro[furo[2,3-f][1,3]benzodioxole-7,3′-indol]-2′(1′H)-one]	> 50	1 to 100	132 to 136 °C	–
O=C1Nc2c(Br)cccc2C12COc1cc3c(cc12)OCO3 (stereo not drawn) [Example 1.5, 7′-bromospiro[furo[2,3-f][1,3]benzodioxole-7,3′-indol]-2′(1′H)-one]	> 50	1 to 100	240 °C (dec.)	–
O=C(O)c1cccc(CN2C(=O)C3(COc4cc5c(cc43)OCCO5)c3ccccc32)c1 (stereo not drawn) [Example 11.86, 3-[(2′-oxo-2,3-dihydrospiro[furo[2,3-g][1,4]benzodioxine-8,3′-indol]-1′(2′H)-yl)methyl]benzoic acid]	< 50	–	254 to 258 °C	1000 to 10000
O=C1N(Cc2ccc3nonc3c2)c2ccccc2C12COc1cc3c(cc12)OCCO3 (stereo not drawn) [Example 4.122, 1-(2,1,3-benzoxadiazol-5-ylmethyl)-2,3-dihydrospiro[furo[2,3-g][1,4]benzodioxine-8,3′-indol]-2′(1′H)-one]	> 50	1 to 100	164 to 166 °C	–
CC(C)c1nc(CN2C(=O)C3(COc4cc5c(cc43)OCCO5)c3ccccc32)cs1 (stereo not drawn) [Example 4.121, 1′-{[2-(1-methylethyl)-1,3-thiazol-4-yl]methyl}-2,3-dihydrospiro[furo[2,3-g][1,4]benzodioxine-8,3′-indol]-2′(1′H)-one]	> 50	1 to 100	60 to 63 °C	–
N#CCCN1C(=O)C2(COc3cc4c(cc32)OCO4)c2ccccc21 (stereo not drawn) [Example 4.80, 3-(2′-oxospiro[furo[2,3-f][1,3]benzodioxole-7,3′-indol]-1′(2′H)-yl)propanenitrile]	> 50	1 to 100	200 to 202 °C	–
Cc1ccc(NC(=O)c2ccccc2CN2C(=O)C3(COc4cc5c(cc43)CCO5)c3ccccc32)c(C)c1 (stereo not drawn) [Example 12.10, N-(2,4-dimethylphenyl)-2-[(2′-oxo-5,6-dihydrospiro[benzo[1,2-b:5,4-b′]difuran-3,3′-indol]-1′(2′H)-yl)methyl]benzamide]	> 50	–	207 to 208 °C	1000 to 10000
O=C1N(Cc2ccccc2C(F)(F)F)c2ccccc2C12COc1cc3[nH]ncc3cc12 (stereo not drawn) [Example 46, 1′-[2-(trifluoromethyl)benzyl]-1H-spiro[furo[3,2-f]indazole-5,3′-indol]-2′(1′H)-one]	> 50	–	124 to 126 °C	1000 to 10000
O=C1N(Cc2nnc(-c3ccc(Cl)cc3)o2)c2ccccc2C12COc1cc3c(cc12)OCO3 (stereo not drawn) [Example 6.7, 1′-{[5-(4-chlorophenyl)-1,3,4-oxadiazol-2-yl]methyl}spiro[furo[2,3-f][1,3]benzodioxole-7,3′-indol]-2′(1′H)-one]	> 50	100 to 1000	161 to 162 °C	–
NC(=O)c1cc(CN2C(=O)C3(COc4cc5c(cc43)OCO5)c3ccccc32)oc1C(F)(F)F (stereo not drawn) [Example 12.58, 5-[(2′-oxospiro[furo[2,3-f][1,3]benzodioxole-7,3′-indol]-1′(2′H)-yl)methyl]-2-(trifluoromethyl)furan-3-carboxamide]	> 50	–	172 to 174 °C	1 to 100
O=C1N(Cc2ccc(Cl)s2)c2cccc(-c3ccoc3)c2C12COc1cc3c(cc12)OCO3 (stereo not drawn) [Example 16.13, 1′-[(5-chloro-2-thienyl)methyl]-4′-(3-furyl)spiro[furo[2,3-f][1,3]benzodioxole-7,3′-indol]-2′(1′1-1)-one]	> 50	–	166 to 168 °C	100 to 1000
Cc1noc2cc3c(cc12)C1(CO3)C(=O)N(Cc2ccccc2C(F)(F)F)c2ccccc21 (stereo not drawn) [Example 9.41, 3-methyl-1′-[2-(trifluoromethyl)benzyl]spiro[furo[3,2-f][1,2]benzisoxazole-5,3′-indol]-2′(1′H)-one]	> 50	100 to 1000	192 to 194 °C	–
O=C1N(Cc2cccnc2)c2ccccc2C12COc1ccc3nonc3c12 (stereo not drawn) [Example 4.125, 1-(pyridin-3-ylmethyl)spiro[furo[3,2-e][2,1,3]benzoxadiazole-8,3′-indol]-2′(1′H)-one]	< 50	1000 to 10000	230 to 232 °C	–
Cc1nc2cc3c(cc2o1)C1(CO3)C(=O)N(C(c2ccccc2)c2ccccc2)c2ccccc21 (stereo not drawn) [Example 2.14, 1′-(diphenylmethyl)-2-methylspiro[furo[2,3-f][1,3]benzoxazole-7,3′-indol]-2′(1′H)-one]	< 50	≥ 10000	240 to 242 °C	–
COc1ccccc1NC(=O)c1ccccc1CN1C(=O)C2(COc3cc4c(cc32)CCO4)c2ccccc21 (stereo not drawn) [Example 12.11, N-(2-methoxyphenyl)-2-[(2′-oxo-5,6-dihydrospiro[benzo[1,2-b:5,4-b′]difuran-3,3′-indol]-1′(2′H)-yl)methyl]benzamide]	> 50	–	172 to 174 °C	1000 to 10000
CCCCCCN(C)C(=O)c1cccc(CN2C(=O)C3(COc4cc5c(cc43)CCO5)c3ccccc32)c1 (stereo not drawn) [Example 12.2, N-hexyl-N-methyl-3-[(2′-oxo-5,6-dihydrospiro[benzo[1,2-b:5,4-b′]difuran-3,3′-indol]-1′(2′H)-yl)methyl]benzamide]	> 50	–	73 to 74 °C	100 to 1000
Cn1c(=O)oc2cc3c(cc21)OCC31C(=O)N(C[C@H]2CCCO2)c2ccccc21 (stereo partly drawn) [Example 8.14, 3-methyl-1′-(((R)-tetrahydrofuran-2-yl)methyl)-2H-spiro[benzofuro[6,5-d]oxazole-7,3′-indoline]-2,2′(3H,6H)-dione]	< 50	1000 to 10000	186 to 187 °C	–
O=C1N(C[C@H]2CCCO2)c2ccccc2C12COc1cc3c(cc12)CCCO3 (stereo partly drawn) [Example 4.53, 1′-[(2R)-tetrahydrofuran-2-ylmethyl]-6,7-dihydro-5H-spiro[furo[3,2-g]chromene-3,3′-indol]-2′(1′H)-one]	< 50	100 to 1000	151 to 156 °C	–
CC(C)c1nc(CN2C(=O)C3(COc4cc5c(cc43)OCO5)c3ccccc32)no1 (stereo not drawn) [Example 11.26, 1′-{[5-(1-methylethyl)-1,2,4-oxadiazol-3-yl]methyl}spiro[furo[2,3-f][1,3]benzodioxole-7,3′-indol]-2′(1′H)-one]	> 50	–	196 to 199 °C	1 to 100
Cc1ccc(F)c2c1NC(=O)C21COc2cc3c(cc21)CCO3 (stereo not drawn) [Example 3.17, 4′-fluoro-7′-methyl-5,6-dihydrospiro[benzo[1,2-b:5,4-b′]difuran-3,3′-indol]-2′(1′H)-one]	> 50	100 to 1000	> 250 °C	–
COC(=O)c1ccc(CN2C(=O)C3(COc4cc5c(cc43)OCCO5)c3ccccc32)o1 (stereo not drawn) [Example 7.2, methyl 5-[(2′-oxo-2,3-dihydrospiro[furo[2,3-g][1,4]benzodioxine-8,3′-indol]-1′(2′H)-yl)methyl]furan-2-carboxylate]	> 50	1 to 100	88 to 92 °C	–
CN(C)c1ccc(-c2cccc3c2C2(COc4cc5c(cc42)CCO5)C(=O)N3Cc2ccc(C(F)(F)F)o2)cn1 (stereo not drawn) [Example 16.11, 4′-[6-(dimethylamino)pyridin-3-yl]-1′-{[5-(trifluoromethyl)furan-2-yl]methyl}-5,6-dihydrospiro[benzo[1,2-b:5,4-b′]difuran-3,3′-indol]-2′(1′H)-one]	> 50	–	223 to 225 °C	100 to 1000
Cc1nc2cc3c(cc2s1)C1(CO3)C(=O)N(CC2CCOCC2)c2ccccc21 (stereo not drawn) [Example 4.57, 2-methyl-1′-(tetrahydro-2H-pyran-4-ylmethyl)spiro[furo[2,3-f][1,3]benzothiazole-7,3′-indol]-2′(1′H)-one]	> 50	1000 to 10000	186 to 187 °C	–
